“Also recorded” adds a separate entry of the source.
Columns and labels:
Format in all cases: cell-based, human
p80 [1] = assay: Western analysis of p80 expression in drug-treated SKOV3 cells; conditions: for expression of p80 (Western blotting): OVCA cells, calculated as p80 per mg protein or DNA; for expression of p80 (Western analysis): SKOV3, 24-hour treatment, compared to control DMSO-treated cells
Experimental: FIG. 9. […] Rat brain extract was used as a positive control (lane e). MW=Molecular weight markers (High Range SDS-PAGE standard). Actin was detected as loading control.
Western Blot Analysis: The cell monolayer was lysed with lysis buffer containing six protease inhibitors (Protease Cocktail; Roche), incubated on ice for 10 min, and scraped with a rubber policeman. Cell lysate was collected and centrifuged at 12,000× g for 30 min. Supernatants were saved for SDS-PAGE and Western blot analysis, and pellets were extracted by SDS-PAGE sample buffer (minus reducing reagent). The total amount of protein in each extract was determined by the bicinchoninic acid (BCA) method. SDS-PAGE was performed, loading the same amount of total protein in the same volume into each sample well, using commercially available precast 4-15% gradient SDS-polyacrylamide gels (Bio Rad). High range SDS-PAGE standard (Bio Rad) was run as a standard. After electrophoresis, proteins were transferred onto a PVDF membrane. After transfer, the membrane was incubated with primary antibody, then washed, and incubated with peroxidase-labeled second antibody. Signals were visualized on Hyperfilm-ECL by the ECL-reagents (Amersham).
SDS-PAGE and Western Blot Analysis: The cell monolayer was lysed with lysis buffer containing 6 protease inhibitors (Boehringer-Mannheim). Cell lysate was collected by centrifugation after the supernatants were saved. The pellet was extracted by boiling with SDS-containing buffer. The total amount of protein in each extract was determined. SDS-PAGE was performed by loading the same amount of total protein into each sample well. After electrophoresis, proteins were electro-transferred onto a PVDF membrane. Then, the membrane was incubated with primary antibody, washed, and incubated with peroxidase conjugated horse anti-mouse IgG (H+L). Signals were developed with an enhanced luminescence reagent (ECL, Amersham) and visualized on Hyper ECL-Film. (Amersham). Signal density was measured and analyzed by a densitometer. Western analysis can furnish information on immunoreactivity and molecular size; therefore, this technique was often used for the first-line screening of the presence of p80. However, if there was any ambiguity about the cross-reactivity, the results were double checked with Northern blotting or RT-PCR with specific primers.
(§1) Rationale and Experiments: In order to assess the effects of various classes of chemotherapy on p80-containing OVCA cells and to elucidate the relationship between p80, EM, and OVCA proliferation, EM or tamoxifen or the NADPH-oxidase inhibitor diphenyleneiodonium treatment was carried out. […] The treatment was followed with Western blotting to determine the effect of each agent on p80 expression. To control for reduced cell numbers or changes in cell volume as confounding factors, results were calculated on the basis of p80 per mg protein or DNA in the cells.

OVCA cell lines [2] = assay: MTT assay of OVCA cell proliferation; conditions: data not shown; for cell proliferation (MTT assay): all the cell lines, same doses as the p80 experiment
Experimental: as §1
To further test the relationship between p80 and OVCA proliferation, OVCA cells were treated with EGF and measured proliferation (MTT assay) and the expression of p80 (Western Blotting). Again, results were calculated on a per mg protein or DNA basis to avoid confounding. […] (2) E-M/ECC's and their roles as specific antimicrotubular agents will be tested.

OVCA cell lines [3] = assay: Flow cytometry of the cell cycle distribution of OVCA; conditions: all OVCA cell lines; 24 hours treatment; 1-100 μgm/ml; compared to control DMSO-treated cells
Source text: Effect of EM on the cell cycle of OVCA. Rationale: Since EM's antiproliferative activity could be due to the disruption of mitosis and other crucial microtubule-dependent cellular functions, flow cytometry was used to investigate the effect of EM on the cell cycle distribution of OVCA. Experiments: Following EM administration (1-100/ μgm/ml) the flasks were trypsinized and all cells subjected to flow cytometry in the Yale Cancer Center Core laboratory. […] Conclusions: (1) EM induced cell cycle synchronization at G2/M. This was consistent with an action on OVCA microtubule associated proteins (MAP's). (2) Synchronization in G2/M raised the possibility of radio-sensitization (Barnes WM. PCR amplification of up to 35-Kb DNA with high fidelity and high yield from lambda bacteriophage templates. Proc Natl Acad Sci USA March 15; 91 (6): 2216-20, 1994; Mandelkow E, Mandelkow E-M. Microtubules and microtubule-associated proteins. Current Opinion in Cell Biology 7:72-81, 1995.

OVCA cell lines [4] = assay: 3H-thymidine uptake in cultured OVCA cells; conditions: all OVCA cell lines; 1-100 μg/ml
Source text: Culture of OVCA cell lines and cell cultures. Rationale: In order to determine the efficacy of inhibiting human OVCA cells with drugs, four extensively characterized OVCA cell lines, three in-house lines, DK2NMA, BIXLER, BIX3 (all courtesy of Drs. S. Chambers and B. Kacinski), (Peter B. Kaufman, William, Wu, Donghern Kim, Leland J. Cseke. Molecular Biology and Medicine. CRC Press inc., Boca Raton, Florida Chapter 12:289-304, 1995) and SKOV3, obtained from American Type Culture Collection, were established in mono-layer culture. Experiments: In preparation for drug treatment, cell suspensions were thor-oughly dispersed, precisely counted and then seeded into another flask at the desired cell den-sity. Conclusion: The cell lines were established, and test drugs shown to predictably affect the cells. Results were produced that meet stringent reliability criteria, including precision i.e., small variability between replicates.
Inhibition of OVCA cell proliferation by EM (estrogen mustard). Rationale: Clini-cally, EM has modest systemic toxicity and has been partially effective in the treatment of advanced prostatic carcinoma. […] Therefore, the effect of EM on OVCA cells was studied. Experiments: 3H-thymidine uptake was used to test the effect of EM against cultured OVCA cells in a wide range of concentrations (1-100 μg/ml). […]

p80 [5] = assay: Immunofluorescence staining of p80 in PMA-treated THP-1 cells; conditions: 10 ng/ml, 5 days
Experimental: (§2) FIG. 11. (Top): Light microscopy of THP-1 cells after treatment of PMA. A. untreated THP-1 cells; B. THP-1 cells treated with 10 ng for five days. (Middle): Western blotting analysis of p80 in PMA-treated THP-1 cells. M: protein markers, Lane 1. SKOV3 (OVCA) as p80 positive control, Lane 2. Untreated THP-1 cells, supernatant from the cell lysate. Lane 3. Untreated THP-1 cell, pellet from the cell lysate. Lane 4. 5 day-PMA (10 ng/ml) treated THP-1 cells, supernatant from the cell lysate. Lane 5:5 day-PMA (10ng/ml) treated THP-1 cells, pellet from the cell lysate. Lane 6: human brain protein extract as 350 kDa MAP1a control. Lanes 7-12 are duplications of Lane 1-7. Note: Before PMA treatment there is a thick 80 kDa band in Lane 2; after 5 days of PMA treatment, the 80 kDa band became undetectable. (Bottom): IF straining of THP-1 cells after 5 days treatment with PMA. A. Untreated THP-1 cells; B. PMA (10 ng/ml) treated THP-1 cells.
(§3) Terminal Differentiation of THP-1 leukemia cells was associated with decreased expression of p80. […] The slide was studied by a fluorescence microscope for the presence of the P80 and photographed. […] Before treatment with PMA, the cells were round with bright fluorescence (FIG. 11-a Bottom); after PMA treatment, the cells grew processes with no IF of P80 (FIG. 11b Bottom). […]

[6] = system: THP-1 promonocytic leukemia cell line; assay: Cell morphology/differentiation of THP-1 leukemia cells after PMA; conditions: THP-1 cells; 10 ng/ml
Experimental: as §2, §3

p80 [7] = assay: Western blotting of p80 in PMA-treated THP-1 cells; conditions: 10 ng/ml, 5 days
Experimental: as §2, §3

p80 [8] = assay: SDS-PAGE/Western blot of p80 in BIX3 OVCA cells after EGF treatment; conditions: per mg protein or DNA basis, compared to untreated control
Experimental: FIG. 10. SDS-PAGE/Western blot analysis of p80 in BIX3 OVCA cells following treatment with EGF, (see text). The lanes are as follows: (a) protein standards, (b) control-untreated, (c) EGF-treated. The density of p80 expression was increased after EGF treatment. Actin was detected as loading control.
Stimulation of expression of p80 by epidermal growth factor (EGF). […] To further test the relationship between p80 and OVCA proliferation, OVCA cells were treated with EGF and measured proliferation (MTT assay) and the expression of p80 (Western Blotting). Again, results were calculated on a per mg protein or DNA basis to avoid confounding. Findings: (1) Increasing doses of EGF (10-50 ng/ml) stimulated OVCA proliferation in comparison to untreated controls (data not shown). […] (2) E-M/ECC's and their roles as specific antimicrotubular agents will be tested. Alternative approaches, such as targeting this molecule by using antisense DNA/RNA to block its expression could be helpful in elucidating whether the expression of this protein is a cause or an effect of OVCA proliferation. Furthermore, the antisense approach may also lead to the development of a novel modality for OVCA therapy targeting p80.

| Compound | expression of p80 (Western blotting) (p80 [1]) | expression of p80 (Western analysis) (p80 [1]; 10 μM) | cell proliferation (MTT assay) (OVCA cell lines [2]) | also measured |
| --- | --- | --- | --- | --- |
| c1ccc2c(c1)[I+]c1ccccc1-2 [DPI, diphenyleneiodonium] | significantly inhibited | significant decreases | significantly decreased |  |
| C[C@]12CC[C@@H]3c4ccc(OC(=O)N(CCCl)CCCl)cc4CC[C@H]3[C@@H]1CC[C@@H]2O [EM, estrogen mustard] | significantly inhibited | significant decreases | significantly decreased | percentages of cells in G2/M phase (OVCA cell lines [3]): significant increase; 3H-thymidine incorporation (OVCA cell lines [4]): marked, dose-dependent inhibition |
| CCCCCCCCCCCCCC(=O)O[C@@H]1[C@@H](C)[C@@]2(O)[C@@H](C=C(CO)C[C@]3(O)C(=O)C(C)=C[C@@H]23)[C@@H]2C(C)(C)[C@]12OC(C)=O [PMA, phorbol myristic acetate] |  |  |  | immunofluorescence (IF) of p80 (p80 [5]): no IF of P80; differentiation / cell morphology [6]: began to differentiate to monocytes/macrophages; p80 (80 kDa band) on Western blots (p80 [7]): disappeared; also recorded: undetectable |
| CC/C(=C(\c1ccccc1)c1ccc(OCCN(C)C)cc1)c1ccccc1 [TMX, tamoxifen] | significantly inhibited |  | significantly decreased | expression of p80 (Western analysis) (p80 [1]; 100 μM): significant decreases |
| epidermal growth factor (NSDSECPLSHDGYCLHDGVCMYIEALDKYACNCVVGYIGERCQYRDLKWWELR; Epidermal growth factor; UniProt P01133 971-1023, looked up) [EGF, growth factor; ovarian cancer cells have EGF receptors] |  |  |  | OVCA proliferation (MTT assay) (OVCA cell lines [2]; 10-50 ng/ml, increasing doses, compared to untreated controls): stimulated; expression of p80 (Western blotting) (p80 [8]): increased significantly |
